Data set [1] has as its system dog. As to conditions: Sub-acute repeat dose toxicity, beagle, Oral, Gavage/Intubation, dose end: 14 day, group: systemic.
The test system of data set [2] is rat. The note with it: Sub-acute repeat dose toxicity; sprague dawley; Oral; Gavage/Intubation; dose end: 14 day; group: systemic; systemic / clinical chemistry / [other] / [other] + systemic / clinical chemistry / 5' nucleotidase / 5' nucleotidase + systemic / clinical ….
The subject of data set [3] is rat. As to conditions: Subchronic oral toxicity in rodents, fischer, Feed, dose end: 13 week.
In data set [4] the test system is dog. As to conditions: Chronic toxicity; beagle; Oral; Feed; dose end: 52 week; group: systemic; systemic / organ weight / adrenal gland / absolute + systemic / organ weight / adrenal gland / relative to body weight + systemic / ….
In data set [5] the test system is rat. As to conditions: Prenatal developmental toxicity study, sprague dawley, Oral, Gavage/Intubation, dose end: 17 GD.
Data set [6] deals with mouse. As to conditions: Combined chronic toxicity/carcinogenicity; b6c3f1; Oral; Feed; dose end: 104 week; group: systemic; systemic / in life observation / body weight / body weight + systemic / in life observation / body weight / body weight gain + systemic / ….
For data set [7], the system named is rat. As to conditions: Combined chronic toxicity/carcinogenicity; fischer; Oral; Feed; dose end: 24 month; group: systemic; systemic / in life observation / body weight / body weight + systemic / in life observation / body weight / body weight gain + systemic / ….
Data set [8] concerns rat. The note with it: Prenatal developmental toxicity study, other, Oral, Gavage/Intubation, dose end: 15 GD.
The subject of data set [9] is rat. The note with it: Combined chronic toxicity/carcinogenicity, wistar, Oral, Feed, dose end: 104 week.
For data set [10], the system named is dog. The note with it: Chronic toxicity, beagle, Oral, Feed, dose end: 52 week, group: systemic.
For data set [11], the system named is dog. As to conditions: Subchronic oral toxicity in nonrodent, beagle, Feed, dose end: 13 week, group: systemic, systemic / organ weight / lung / relative to body weight + systemic / pathology gross / lung / [other] + systemic / pathology microscopic / ….
Data set [12] deals with mouse. The note with it: Combined chronic toxicity/carcinogenicity, other, Oral, [Not Specified], dose end: 99 week, group: systemic.
Data set [13] relates to mouse. As to conditions: Combined chronic toxicity/carcinogenicity, other, Oral, Feed, dose end: 104 week, group: systemic.
Data set [14] has as its system rat. The note with it: Combined chronic toxicity/carcinogenicity, fischer, Oral, Feed, dose end: 119 week, group: systemic.
The test system of data set [15] is mouse. The note with it: Combined chronic toxicity/carcinogenicity, b6c3f1, Oral, Feed, dose end: 104 week, group: systemic.
The subject of data set [16] is mouse. The note with it: Combined chronic toxicity/carcinogenicity, b6c3f1, Oral, Feed, dose end: 5 week, group: systemic.
The subject of data set [17] is rat. As to conditions: Combined chronic toxicity/carcinogenicity, fischer, Oral, Feed, dose end: 13 week, group: systemic.
[18] abbreviates: systemic / clinical chemistry / cholesterol / cholesterol + systemic / clinical chemistry / thyroid stimulating hormone (thyrotropin) (tsh….
Setting [19] is: systemic / clinical chemistry / thyroid stimulating hormone (thyrotropin) (tsh) / thyroid stimulating hormone (=thyrotropin) (tsh) + ….
Setting [20] is: group: cholinesterase, cholinesterase / cholinesterase / cholinesterase / plasma cholinesterase (che).
Setting [21] is: group: systemic, systemic / organ weight / kidney / relative to body weight + systemic / organ weight / liver / absolute + systemic / organ weight / liver / ….
Where [22] appears, read: group: developmental, developmental / developmental malformation / bone / delayed ossification.
Where [23] appears, read: group: maternal, systemic / in life observation / body weight / body weight gain + systemic / in life observation / food consumption / food consumption + ….
The mark [24] stands for this setting: group: developmental, developmental / developmental malformation / bone / delayed ossification + systemic / in life observation / body weight / fetal weight.
Where [25] appears, read: group: maternal, systemic / in life observation / body weight / body weight gain + systemic / in life observation / clinical signs / emaciation + systemic / ….
[26] abbreviates: group: cholinesterase, cholinesterase / cholinesterase / cholinesterase / erythrocyte cholinesterase (che).
Where [27] appears, read: group: systemic, systemic / organ weight / kidney / absolute + systemic / organ weight / ovary / absolute.
[28] abbreviates: group: systemic, systemic / organ weight / kidney / absolute + systemic / organ weight / ovary / absolute + systemic / organ weight / brain / relative to ….
The mark [29] stands for this setting: systemic / pathology microscopic / lung / [other] + systemic / urinalysis / [other] / urine.
[30] abbreviates: systemic / in life observation / body weight / body weight + systemic / in life observation / food consumption / food consumption + systemic….
The mark [31] stands for this setting: systemic / in life observation / food consumption / food consumption + systemic / pathology microscopic / blood / [other] + systemic / ….
The mark [32] stands for this setting: systemic / in life observation / body weight / body weight gain + systemic / organ weight / liver / relative to body weight + systemic / ….
[33] abbreviates: systemic / organ weight / kidney / absolute + systemic / organ weight / liver / relative to body weight.
The mark [34] stands for this setting: systemic / organ weight / kidney / absolute + systemic / organ weight / liver / relative to body weight + systemic / organ weight / kidney….
[35] abbreviates: systemic / organ weight / liver / absolute + systemic / organ weight / liver / relative to body weight + systemic / pathology microscopic / ….
The mark [36] stands for this setting: systemic / organ weight / spleen / absolute + systemic / organ weight / spleen / relative to body weight.

Where only a bound is given, the exact number is not on record here.

As for `Cc1cc(NC(=O)C(=O)O)cc(C)c1Oc1ccc(O)c2c1CCC2`, in the data set on dog [1] (setting [18]), the LEL was found to be 5 mg/kg/day and the NEL is less than 5 mg/kg/day. Also, in the data set on dog [1] (setting [19]), the lowest observed adverse effect level (LOAEL) (in general, the lowest dose or exposure tested at which an adverse effect was seen) was greater than 100 mg/kg/day and the no observed adverse effect level (NOAEL) – broadly, the highest dose or exposure tested at which no adverse effect was seen – is no less than 100 mg/kg/day. Also, in the data set on rat [2], the LEL came to 1 mg/kg/day, the lowest-observed-adverse-effect level (LOAEL) is greater than 1000 mg/kg/day, the NEL is less than 1 mg/kg/day and the no observed adverse effect level (NOAEL) is no less than 1000 mg/kg/day.
With `C[C@H]1[C@H](c2ccc(Cl)cc2)SC(=O)N1C(=O)NC1CCCCC1` [Hexythiazox], the LEL in the data set with rat [3] (setting [20]) turned out to be 50 mg/kg/day; in the data set on rat [3] (setting [21]), 50 mg/kg/day; in the data set on dog [4], 13.1 mg/kg/day; in the data set on rat [5] (setting [22]), 720 mg/kg/day; with rat [5] (setting [23]), 720 mg/kg/day; in the data set with mouse [6], 267 mg/kg/day. The LEL in the data set with rat [7] stood at 163 mg/kg/day. Further, the lowest observed adverse effect level (LOAEL) in the data set with rat [3] (setting [20]) was greater than 350 mg/kg/day; with rat [3] (setting [21]), 50 mg/kg/day; in the data set on dog [4], 13.1 mg/kg/day; in the data set with rat [5] (setting [22]), greater than 2160 mg/kg/day; with rat [5] (group: maternal, systemic / in life observation / body weight / body weight gain + systemic / in life observation / food consumption / food consumption) it was 720 mg/kg/day; with mouse [6], 267 mg/kg/day. Also, the lowest-observed-adverse-effect level (LOAEL) in the data set on rat [7] came to 163 mg/kg/day. The NEL in the data set with rat [3] (setting [20]) was 7 mg/kg/day; in the data set with rat [3] (setting [21]), 7 mg/kg/day; with dog [4], 2.87 mg/kg/day; in the data set with rat [5] (setting [22]), 240 mg/kg/day; with rat [5] (setting [23]) it was 240 mg/kg/day; in the data set with mouse [6], 41.6 mg/kg/day. Besides, in the data set with rat [7], the NEL was found to be 23 mg/kg/day. Also, the no-observed-adverse-effect level (NOAEL) with rat [3] (setting [20]) was no less than 350 mg/kg/day; with rat [3] (setting [21]), 7 mg/kg/day; in the data set on dog [4], 2.87 mg/kg/day; in the data set on rat [5] (setting [22]), no less than 2160 mg/kg/day; in the data set on rat [5] (setting [23]), 240 mg/kg/day; in the data set on mouse [6], 41.6 mg/kg/day. For the same compound, in the data set on rat [7], the no-observed-adverse-effect level (NOAEL) came out at 23 mg/kg/day.
Turning to `C[n+]1ccc(-c2cc[n+](C)cc2)cc1.[Cl-].[Cl-]` [Paraquat dichloride], the LOAEL is 5 mg/kg/day with rat [8] (setting [22]); 5 mg/kg/day with rat [8] (setting [25]); 15 mg/kg/day in the data set with rat [9] (setting [26]); 15 mg/kg/day with rat [9] (setting [28]); 0.93 mg/kg/day in the data set on dog [10] (systemic / pathology microscopic / lung / inflammation); 1.5 mg/kg/day with dog [11]. Moreover, the lowest observed adverse effect level (LOAEL) was found to be 5.62 mg/kg/day with mouse [12] (setting [30]) and 13 mg/kg/day with mouse [13] (systemic / hematology / leukocyte (wbc) count differential / leukocyte (wbc) + systemic / hematology / erythrocyte (rbc) count differential…). Further, the LEL in the data set with rat [8] (setting [24]) was 5 mg/kg/day; with rat [8] (setting [25]), 5 mg/kg/day; with rat [9] (setting [26]), 15 mg/kg/day; in the data set with rat [9] (setting [28]) it was 15 mg/kg/day; in the data set on dog [10] (setting [29]), 0.45 mg/kg/day; in the data set with dog [11] it was 1.5 mg/kg/day. In addition, the figures for the LEL in the data set with mouse [12] (setting [31]) and in the data set with mouse [13] (systemic / pathology microscopic / mammary gland / [other]) were 1.88 mg/kg/day and 3.82 mg/kg/day, respectively. For the same compound, the NEL in the data set with rat [8] (setting [24]) was 1 mg/kg/day; in the data set with rat [8] (setting [25]), 1 mg/kg/day; in the data set with rat [9] (setting [26]) it was 5 mg/kg/day; with rat [9] (setting [27]), 5 mg/kg/day; with dog [10] (setting [29]) it was less than 0.45 mg/kg/day; in the data set with dog [11], 0.5 mg/kg/day. Moreover, the NEL with mouse [12] (setting [31]) was less than 1.88 mg/kg/day; in the data set with mouse [13] (systemic / pathology microscopic / mammary gland / [other] + systemic / clinical chemistry / glucose / glucose + systemic / clinical …), 1.32 mg/kg/day. For the same compound, the NOAEL with rat [8] (setting [24]) came to 1 mg/kg/day; in the data set on rat [8] (setting [25]) it was 1 mg/kg/day; in the data set on rat [9] (setting [26]), 5 mg/kg/day; with rat [9] (setting [27]), 5 mg/kg/day; in the data set on dog [10] (systemic / pathology microscopic / lung / inflammation + systemic / pathology microscopic / ear / squamous cell papilloma + systemic / in …) it was 0.45 mg/kg/day; in the data set with dog [11], 0.5 mg/kg/day. For the same compound, the NOAEL in the data set with mouse [12] (setting [30]) was 1.88 mg/kg/day; in the data set on mouse [13] (systemic / hematology / leukocyte (wbc) count differential / leukocyte (wbc)), 3.82 mg/kg/day.
On to `CC(C)=CC1C(C(=O)OCc2cccc(Oc3ccccc3)c2)C1(C)C` (centres undefined) [Phenothrin], for which the no-observed-adverse-effect level (NOAEL) is 50 mg/kg/day with rat [14] (systemic / in life observation / body weight / body weight gain), 45 mg/kg/day in the data set on mouse [15] (setting [34]), 190 mg/kg/day in the data set with mouse [16] (setting [35]) and 70 mg/kg/day with rat [17] (systemic / organ weight / spleen / absolute + systemic / organ weight / spleen / relative to body weight + systemic / clinical chemistry / …). Besides, the LEL in the data set on rat [14] (setting [32]) came to 150 mg/kg/day; in the data set on mouse [15] (setting [33]), 45 mg/kg/day; with mouse [16] (systemic / pathology microscopic / liver / necrosis), 190 mg/kg/day; in the data set on rat [17] (setting [36]), 21 mg/kg/day. Moreover, the LOAEL in the data set on rat [14] (setting [32]) came to 150 mg/kg/day; in the data set with mouse [15] (setting [34]) it was 150 mg/kg/day; with mouse [16] (setting [35]), 565 mg/kg/day; in the data set with rat [17] (systemic / clinical chemistry / cholesterol / cholesterol + systemic / clinical chemistry / lactic acid dehydrogenase (ldh) / lactic acid …) it was 216 mg/kg/day. Further, the NEL in the data set on rat [14] (systemic / organ weight / liver / relative to body weight) is 50 mg/kg/day; in the data set with mouse [15] (setting [33]), less than 45 mg/kg/day; in the data set with mouse [16] (setting [35]), 57 mg/kg/day; in the data set with rat [17] (setting [36]), less than 21 mg/kg/day.
